Results published in PMC12209172, “Poly(ADP-ribose)polymerase 2 is zinc-dependent enzyme and nucleosome reorganizer” (Cellular and Molecular Life Sciences: CMLS, 2025).
Values joined by “and” are separate entries in the source; they are usually repeats but may differ in a detail not shown here. Equal values may be shown once. Read-outs that look alike come from different tables or passages of the source.

Columns and labels:
[1] = target: T1, PARP2-nucleosome complexes (Mus musculus, UniProt O88554); experiment: spFRET microscopy in solution of nucleosomes and PARP2-nucleosome complexes; conditions: for effect of ions on the nucleosome structure: NP nucleosomes without PARP2, 5 mM ions; for effect of ions on the structure of nucleosomes in PARP2-nucleosome complexes: Zn2+ 0.3 mM, Ca2+ 5 mM or Mg2+ 5 mM
T1 construct: Recombinant mouse full-length PARP2 was obtained in the baculovirus expression system; made in house; host or cells: PARP2: Sf9 insect cells (baculovirus), gift of Prof; O. Lavrik; nucleosomes assembled in house
Description: In the study of nucleosome-PARP2 interactions, nucleosomes (1-2 nM) were incubated with PARP2 (12.5-200 nM) in buffer A (50 mM Tris-HCl pH 7.5; 40 mM NaCl; 0.5 mM β-mercaptoethanol (β-ME); 0.1% NP40) at 25 °C for 30 min. When indicated, buffer A was supplemented with 50 μM - 5 mM ZnCl2, 5 mM CaCl2 or 5 mM MgCl2. […] […] measurements in solution were performed as described previously. Each measured single nucleosome was characterized by FRET between Cy3 and Cy5 labels calculated as a proximity ratio (EPR):1 [drawing 1] Where I3 and I5 are fluorescence intensities of Cy3 and Cy5, respectively, and coefficients 0.19 and 0.81 provide correction for the spectral cross-talk between Cy3 and Cy5 detection channels. EPR is a FRET efficiency not corrected for quantum yields of labels and an instrumentation factor. Relative frequency distributions of nucleosomes by EPR values, i.e. EPR profiles, (2000-5000 nucleosomes per experiment; 3 independent experiments) were plotted and further analyzed as a superposition of several normal (Gaussian) distributions for nucleosomes or nucleosome-PARP2 complexes. Since nucleosomes tend to aggregate when PARP2 is added (especially at high concentrations), treatment of signals measured from nucleosomes and their complexes included mandatory rejection of signals from any aggregates that are clearly recognized due to their slow diffusion rate and/or abnormally high fluorescence intensity.

[2] = target: T2, WGR domain of PARP2 (Homo sapiens, UniProt Q9UGN5); experiment: Tryptophan fluorescence spectroscopy of the WGR domain titrated with divalent cations (one site binding fit); conditions: for Kd: Trp fluorescence, one site binding fit, 10 mM HEPES pH 8.0, 150 mM NaCl, residual EDTA present, read-out: dissociation constant of the divalent cation-WGR domain complex; for effect of ions on intensity of tryptophan fluorescence of the WGR domain: WGR domain 5 µM
T2 construct: WGR domain of PARP2 (residues 77–220) into pET-15b-TEV expression vector; 6xHis (pET-15b-TEV) (N, cleaved yes); made in house; host or cells: Escherichia coli Rosetta2 (DE3) pLysS
T2 sequence (Q9UGN5 77-220): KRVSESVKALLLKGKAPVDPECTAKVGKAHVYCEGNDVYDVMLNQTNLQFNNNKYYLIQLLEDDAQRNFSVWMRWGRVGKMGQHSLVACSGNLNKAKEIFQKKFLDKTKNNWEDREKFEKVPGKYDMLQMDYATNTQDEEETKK
Description: Fluorescence spectra of Trp residues were measured in the 300–450 nm spectral range at the 270 nm excitation wavelengths using the Cary Eclipse spectrofluorometer (Varian/Agilent, USA).
Fluorescence of WGR domain was measured at 0.5 or 5 µM in a buffer containing 10 mM HEPES (pH 8.0), 150 mM NaCl and 0.73 or 7.3 µM EDTA, respectively. Solutions were complemented with ZnCl2 (0.2–308 µM) or MgCl2 (15–5000 µM), or CaCl2 (8–5000 µM) dissolved in a buffer containing 10 mM HEPES (pH 8.0), 150 mM NaCl. Intensity of the measured spectra was corrected for the concomitant dilution of the WGR domain. Integral intensities (Ifl.) of fluorescence spectra were averaged over three independent measurements (mean ± SEM) and used to plot the corresponding Ifl. vs. ion concentration graphs. Data were fitted with the one site binding equation:2 [drawing 2]
Where C is the concentration of divalent cations, Kd is a dissociation constant of the complex, Im and Ifl0 are maximal and initial values of Ifl., respectively.

[3] = target: T3, PARP2 (Mus musculus, UniProt O88554); experiment: Circular dichroism spectroscopy of PARP2 (BeStSel secondary structure analysis); parameters: Recombinant mouse full-length PARP2 was obtained in the baculovirus expression system; made in house; host or cells: Sf9 insect cells (baculovirus); gift of Prof; O. Lavrik; conditions: 0.3 mM Zn2+, 0.7 mM Ca2+ or 0.7 mM Mg2+
Description: (§1) CD spectra of proteins were recorded within the 190-250 nm spectral range with 0.2 nm step using Jasco-810 spectrophotometer (Jasco, Japan) and the quartz […]® cuvette of 0.1 mm thickness (Hellma, Germany. Secondary structure analysis was performed using BeStSel webserver. To improve the reliability of the analysis, the content of canonical secondary structures of various types was predicted for 3-6 independent measurements, and the values were averaged. The statistical significance of the secondary structure difference was determined using the multiple t-test.

[4] = target: T2, WGR domain of PARP2; experiment: Circular dichroism spectroscopy of the WGR domain (BeStSel secondary structure analysis); parameters: content of a-helix in the WGR domain / content of b-sheet in the WGR domain / content of turn in the WGR domain / content of random coil in the WGR domain: unit not given here; conditions: for content of a-helix in the WGR domain / content of b-sheet in the WGR domain / content of random coil in the WGR domain / content of turn in the WGR domain: 5 mM ion, independent measurements
Description: as §1

[5] = target: T3, PARP2; experiment: Western blot analysis of NAD+-dependent PARylation by PARP2 in PARP2-nucleosome complexes; assay type: biochemical; parameters: Recombinant mouse full-length PARP2 was obtained in the baculovirus expression system; made in house; host or cells: PARP2: Sf9 insect cells (baculovirus), gift of Prof; O. Lavrik; nucleosomes assembled in house; conditions: for effect of EDTA on PARylation: EDTA 10 mM
Description: Probes were subjected to electrophoresis in 4–12% bis-Tris gradient gel in the NuPAGE™ MES SDS Running Buffer at 130 V. […] The membrane was incubated for 60 min in the PBS-T solution supplemented with the 5% skimmed milk. Then the membrane was incubated with mouse monoclonal antibodies 10 H followed by incubation with the secondary anti-mouse antibodies conjugated with horseradish peroxidase (Bio-Rad, Hercules, CA, USA). The washing procedure was carried out after each step of incubation. Immunodetection was performed using the Super Signal West Pico Chemiluminescent Substrate (Thermo Fisher Scientific, Waltham, MA, USA) for 3 min. The Western blot experiments were performed in three independent repetitions.

[6] = test system: PARP2 (Mus musculus); experiment: EMSA; conditions: no divalent ions; EMSA: 2-3 nM nucleosomes, 5% PAGE in 0.2x TBE, 140 V, 4 C; divalent ions as given per row; binding buffer not in the material
[7] = target: PARP2 (Mus musculus) (UniProt O88554); conditions: cited from earlier work
[8] = target: PARP2 (Mus musculus) (UniProt O88554); conditions: cited from earlier work; remark: listed apart in the source
[9] = target: Nucleosome assembled on a fluorescently labelled 187-bp DNA template (603 positioning sequence) with histones of chicken donor chromatin (chicken); experiment: native gel or EMSA + other: single particle fluorescence intensity analysis in the gel; nucleosomes NP with PARP2 (50 nM) in buffer A with 0.3 mM Zn2+; native PAGE
[10] = target: DNA; conditions: read-out: Kd of PARP2 complex with DNA, cited from earlier work
[11] = target: T4, NP nucleosomes (Mus musculus, UniProt O88554); experiment: EMSA of PARP2-nucleosome complexes (non-denaturing PAGE, FRET-in-gel); assay type: binding, chicken
T4 construct: Recombinant mouse full-length PARP2 was obtained in the baculovirus expression system; made in house; host or cells: PARP2: Sf9 insect cells (baculovirus), gift of Prof; O. Lavrik; nucleosomes assembled in house
Description: Sample preparation for EMSA was the same as for spFRET microscopy, although a slightly higher concentration of nucleosomes (2–3 nM) was used. The PARP2-nucleosome complexes were subjected to 5% polyacrylamide gel in 0.2×TBE buffer. Electrophoresis was performed under native conditions at 140 V, + 4 °C for ∼1.5 h. The gels were scanned using Amersham Typhoon RGB imager (Cytiva, Sweden). Fluorescence was excited in the gel at the 532 nm wavelength and recorded in the 570–610 nm (Cy3 signal) and 650–700 nm (FRET signal of Cy5) spectral regions. The resulting images were obtained in green (Cy3 signal) and red (FRET signal of Cy5) colors and merged.

[12] = target: nucleosome; conditions: read-out: Kd of PARP2-nucleosome complex, cited from earlier work

Q: For `[Ca+2].[Cl-].[Cl-]` [Ca2+, CaCl2], which “effect of ions on the nucleosome structure” value [1] is on record?
A: minimally affect

Q: And the “effect of ions on the structure of nucleosomes in PARP2-nucleosome complexes” value ([1]; PARP2 50 nM)?
A: not changed

Q: And the Kd [2]?
A: 29000 ± 14000 nM

Q: And the “effect of ions on intensity of tryptophan fluorescence of the WGR domain” value [2]?
A: considerably lower than the effect of Zn^2+ ions

Q: What about the “effect of ions on the CD spectrum / conformation of PARP2” value [3] of the same molecule?
A: similar

Q: What about the “effect of ions on the structure of the WGR domain (CD)” value [4] of the same molecule?
A: only minimal changes

Q: And the “content of a-helix in the WGR domain” value [4]?
A: 14.9 and 10.9 and 11.1

Q: And the “content of b-sheet in the WGR domain” value [4]?
A: 30.1 and 29.5 and 31.3

Q: And the “content of random coil in the WGR domain” value [4]?
A: 43.7 and 47.2 and 46.3

Q: What about the “content of turn in the WGR domain” value [4] of the same molecule?
A: 11.4 and 12.5 and 11.3

Q: Which “effect of EDTA on PARP2-nucleosome complexes preformed in the presence of Zn2+” value ([1]; EDTA 10 mM, Zn2+ 0.15 mM, PARP2 50 nM) does the source give for `O=C(O)CN(CCN(CC(=O)O)CC(=O)O)CC(=O)O` [EDTA, ethylenediaminetetraacetic acid] here?
A: does not reverse the changes in the nucleosome structure

Q: What about the “effect of EDTA on PARylation” value ([5]; Mg2+ 5 mM) of the same molecule?
A: fully reverses the effect of Mg^2+ ions

Q: What about the “effect of EDTA on PARylation” value ([5]; Zn2+ 0.3 mM) of the same molecule?
A: strongly enhances the efficiency of PARylation

Q: And the “effect of EDTA on PARylation” value ([5]; absence of divalent ions)?
A: does not affect PARylation

Q: With `[Cl-].[Cl-].[Mg+2]` [Mg2+, MgCl2] as the molecule, how does the “effect of ions on the nucleosome structure” value [1] read?
A: minimally affect

Q: And the “effect of ions on the structure of nucleosomes in PARP2-nucleosome complexes” value ([1]; PARP2 50 nM)?
A: not changed

Q: What about the “effect of ions on efficiency of PARP2-mediated PARylation” value ([5]; Mg2+ 5 mM or Zn2+ 0.3 mM, PARP2 100 nM, nucleosomes 3 nM, NAD+ 0-5 µM) of the same molecule?
A: increase

Q: And the Kd [2]?
A: 180000 ± 80000 nM

Q: What about the “effect of ions on intensity of tryptophan fluorescence of the WGR domain” value [2] of the same molecule?
A: considerably lower than the effect of Zn^2+ ions

Q: And the “effect of ions on the CD spectrum / conformation of PARP2” value [3]?
A: similar

Q: What about the “effect of ions on the structure of the WGR domain (CD)” value [4] of the same molecule?
A: only minimal changes

Q: What about the “content of a-helix in the WGR domain” value [4] of the same molecule?
A: 13.8 and 13.1 and 13.6

Q: And the “content of b-sheet in the WGR domain” value [4]?
A: 27.8 and 25.8 and 28.5

Q: What about the “content of random coil in the WGR domain” value [4] of the same molecule?
A: 46 and 48.5 and 46.1

Q: And the “content of turn in the WGR domain” value [4]?
A: 12.3 and 12.6 and 11.7

Q: Which K half [6] does the source give for Np nucleosome (s603-42A, 187 bp DNA) here?
A: 40 nM

Q: With PARP2 (from UniProt O88554) as the molecule, how does the Kd [7] read?
A: 152 nM

Q: And the Kd [8]?
A: 101 nM

Q: With “Recombinant mouse full-length PARP2 (poly(ADP-ribose)polymerase 2) (from UniProt O88554 1-559) (enzyme)” as the molecule, how does the stoichiometry N (PARP2 per nucleosome) [9] read?
A: 1 and 2

B1: PARP2: Recombinant mouse full-length PARP2 obtained in the baculovirus expression system using Sf9 insect cells (protein)
chain: MAPRRQRSGSGRRVLNEAKKVDNGNKATEDDSPPGKKMRTCQRKGPMAGGKDADRTKDNRDSVKTLLLKGKAPVDPECAAKLGKAHVYCEGDDVYDVMLNQTNLQFNNNKYYLIQLLEDDAQRNFSVWMRWGRVGKTGQHSLVTCSGDLNKAKEIFQKKFLDKTKNNWEDRENFEKVPGKYDMLQMDYAASTQDESKTKEEETLKPESQLDLRVQELLKLICNVQTMEEMMIEMKYDTKRAPLGKLTVAQIKAGYQSLKKIEDCIRAGQHGRALVEACNEFYTRIPHDFGLSIPPVIRTEKELSDKVKLLEALGDIEIALKLVKSERQGLEHPLDQHYRNLHCALRPLDHESNEFKVISQYLQSTHAPTHKDYTMTLLDVFEVEKEGEKEAFREDLPNRMLLWHGSRLSNWVGILSHGLRVAPPEAPITGYMFGKGIYFADMSSKSANYCFASRLKNTGLLLLSEVALGQCNELLEANPKAQGLLRGKHSTKGMGKMAPSPAHFITLNGSTVPLGPASDTGILNPEGYTLNYNEFIVYSPNQVRMRYLLKIQFNFLQLW
Q: Which Kd ([10]; 18 bp duplex oligonucleotides) does the source give for B1 here?
A: 11 nM

Q: What about the Kd ([10]; 147 bp DNA having a gap) of the same molecule?
A: 58 nM

Q: And the Kd ([10]; 147 bp intact DNA)?
A: 840 nM

Q: And the “PARP2 concentration at which complexes with nucleosomes are formed” value ([11]; absence of divalent ions)?
A: ≥ 12.5 nM

Q: What about the EC50 ([11]; absence of divalent ions, read-out: PARP2 concentration at ~50% decrease in the number of free nucleosomes (50% of nucleosomes in complexes)) of the same molecule?
A: 40 ± 10 nM

Q: What about the “PARP2 concentration above which aggregation prevents separation of complexes in the gel” value ([11]; presence of 0.3 mM Zn2+) of the same molecule?
A: above 50 nM

Q: And the Kd ([12]; ref 28)?
A: 150 nM

Q: And the Kd ([12]; ref 59)?
A: 76 nM
